# Assay results as given in US20230124862A1, “BISMUTH THIOL COMPOUNDS AND COMPOSITIONS AND METHODS OF TREATING MICROBIAL CO-INFECTIONS” (Microbion Corporation, priority 2020, published 2023).
# Several values for one entry are separate records, joined by “and”; a condition that tells them apart may be missing. Identical values can stand only once. Like-named read-outs stand apart in the source and are kept apart here.
# Key:
# fungal pathogens = assay: Antifungal activity, NIH/NIAID sponsored study; assay type: cell-based; conditions: for Antifungal activity, MIC 50%: 50% endpoint; for Antifungal activity, MIC 100% / MIC: 100% endpoint
# [1] = system: Burkholderia cepacia complex; assay: Checkerboard FIC/FICI assay; assay type: cell-based, Burkholderia spp.
# P. aeruginosa [2] = assay: Checkerboard FIC/FICI assay; assay type: cell-based, Pseudomonas aeruginosa; conditions: for FICB / MICB: by checkerboard; for Drug B MIC: Colistin alone (checkerboard with BisEDT)
# P. aeruginosa [3] = assay: Broth microdilution MIC (Example 10); assay type: cell-based, Pseudomonas aeruginosa; conditions: initial MIC testing
# [4] = system: vancomycin-intermediate Staphylococcus aureus (VISA); assay: Broth microdilution MIC (Example 12); assay type: cell-based; conditions: Staphylococcus aureus, VISA, VISA isolates; read-out: MIC values
# [5] = system: Burkholderia cepacia complex; assay type: cell-based, Burkholderia spp.; conditions: initial MIC testing
# [6] = B. cepacia 546, Aztreonam in combination with BisEDT, by checkerboard
# [7] = P. aeruginosa 6977, Aztreonam in combination with BisEDT
# [8] = P. aeruginosa isolate 1553 (TOB-R, AMK-R, CIP-R)
# [9] = P. aeruginosa isolate 7745 (MEM-R, CIP-R, AZT-R)
# [10] = P. aeruginosa isolate 7762 (MEM-I, CIP-I)
# [11] = P. aeruginosa isolate 8798 (MEM-R, TOB-R, AMK-R, CIP-R, AZT-R, COL-R)
# [12] = P. aeruginosa 6322, Colistin in combination with BisEDT
# [13] = P. aeruginosa 6977, Colistin in combination with BisEDT
# [14] = P. aeruginosa 7745, Colistin in combination with BisEDT
compound,measurement,setting,value
C1C[S][Bi]([S]CC[S][Bi]2[S]CC[S]2)[S]1 [BisEQT],"Antifungal activity, MIC 50%",fungal pathogens; A. fumigatus AF1,8 µg/mL
same,"Antifungal activity, MIC 100%",fungal pathogens; A. fumigatus AF1,16 µg/mL
same,"Antifungal activity, MIC 50%",fungal pathogens; A. fumigatus AF2,4 µg/mL
same,"Antifungal activity, MIC 100%",fungal pathogens; A. fumigatus AF2,16 µg/mL
same,"Antifungal activity, MIC 50%",fungal pathogens; A. fumigatus AF3,4 µg/mL
same,"Antifungal activity, MIC 100%",fungal pathogens; A. fumigatus AF3,16 µg/mL
same,"Antifungal activity, MIC 50%",fungal pathogens; C. albicans CA1,4 µg/mL
same,"Antifungal activity, MIC 100%",fungal pathogens; C. albicans CA1,8 µg/mL
same,"Antifungal activity, MIC 50%",fungal pathogens; C. albicans CA2,2 µg/mL
same,"Antifungal activity, MIC 100%",fungal pathogens; C. albicans CA2,8 µg/mL
same,"Antifungal activity, MIC 50%",fungal pathogens; C. albicans CA3,4 µg/mL
same,"Antifungal activity, MIC 100%",fungal pathogens; C. albicans CA3,16 µg/mL
same,"Antifungal activity, MIC 50%",fungal pathogens; C. auris Cau1,4 µg/mL
same,"Antifungal activity, MIC 100%",fungal pathogens; C. auris Cau1,16 µg/mL
same,"Antifungal activity, MIC 50%",fungal pathogens; C. auris Cau2,2 µg/mL
same,"Antifungal activity, MIC 100%",fungal pathogens; C. auris Cau2,8 µg/mL
same,"Antifungal activity, MIC 50%",fungal pathogens; C. auris Cau3,4 µg/mL
same,"Antifungal activity, MIC 100%",fungal pathogens; C. auris Cau3,8 µg/mL
same,"Antifungal activity, MIC 50%",fungal pathogens; C. krusei ATCC6258,1 µg/mL
same,"Antifungal activity, MIC 100%",fungal pathogens; C. krusei ATCC6258,4 µg/mL
same,"Antifungal activity, MIC 50%",fungal pathogens; C. neoformans CN1,2 µg/mL
same,"Antifungal activity, MIC 100%",fungal pathogens; C. neoformans CN1,8 µg/mL
same,"Antifungal activity, MIC 50%",fungal pathogens; C. neoformans CN2,4 µg/mL
same,"Antifungal activity, MIC 100%",fungal pathogens; C. neoformans CN2,8 µg/mL
same,"Antifungal activity, MIC 50%",fungal pathogens; C. neoformans CN3,4 µg/mL
same,"Antifungal activity, MIC 100%",fungal pathogens; C. neoformans CN3,16 µg/mL
same,"Antifungal activity, MIC 50%",fungal pathogens; C. parapsilosis ATCC22019,1 µg/mL
same,"Antifungal activity, MIC 100%",fungal pathogens; C. parapsilosis ATCC22019,4 µg/mL
same,"Antifungal activity, MIC 50%",fungal pathogens; P. variotii CLSI QC,4 µg/mL
same,"Antifungal activity, MIC 100%",fungal pathogens; P. variotii CLSI QC,16 µg/mL
same,"Antifungal activity, MIC 50%",fungal pathogens; R. arrhizus RA1,8 µg/mL
same,"Antifungal activity, MIC 100%",fungal pathogens; R. arrhizus RA1,16 µg/mL
same,"Antifungal activity, MIC 50%",fungal pathogens; R. arrhizus RA2,4 µg/mL
same,"Antifungal activity, MIC 100%",fungal pathogens; R. arrhizus RA2,8 µg/mL
same,"Antifungal activity, MIC 50%",fungal pathogens; R. arrhizus RA3,4 µg/mL
same,"Antifungal activity, MIC 100%",fungal pathogens; R. arrhizus RA3,8 µg/mL
C[C@H]1[C@H](NC(=O)/C(=N\OC(C)(C)C(=O)O)c2csc(N)n2)C(=O)N1S(=O)(=O)O [Aztreonam],FICB,"[1]; B. cenocepacia 548, FIC of Aztreonam (Drug B) in combination with BisEDT",[…]
same,MICB,"[1]; B. cepacia 1793, MIC of Aztreonam (Drug B) in combination with BisEDT",128 µg/mL
O=C(O)c1cn(C2CC2)c2cc(N3CCNCC3)c(F)cc2c1=O [CIP],MIC,P. aeruginosa [3]; [8],4 µg/mL
same,MIC,P. aeruginosa [3]; [9],4 µg/mL
same,MIC,P. aeruginosa [3]; [10],7 µg/mL
same,MIC,P. aeruginosa [3]; [11],4 µg/mL
same,MIC,"P. aeruginosa [2]; isolate 103 (ATCC 25922), during FIC testing, each agent tested alone for QC, one replicate",1 µg/mL
CC[C@@H]([C@H](C)O)n1ncn(-c2ccc(N3CCN(c4ccc(OC[C@@H]5CO[C@@](Cn6cncn6)(c6ccc(F)cc6F)C5)cc4)CC3)cc2)c1=O [Posaconazole],MIC,"fungal pathogens; Paecilomyces variotii, read-out: Antifungal activity, MIC 100%, P. variotii CLSI QC",≤ 0.03 µg/mL
same,MIC,"fungal pathogens; Rhizopus arrhizus, read-out: Antifungal activity, MIC 100%, R. arrhizus RA1",4 µg/mL
same,MIC,"fungal pathogens; Rhizopus arrhizus, read-out: Antifungal activity, MIC 100%, R. arrhizus RA2",0.06 µg/mL
same,MIC,"fungal pathogens; Rhizopus arrhizus, read-out: Antifungal activity, MIC 100%, R. arrhizus RA3",0.125 µg/mL
"CC(=O)NC[C@H]1CN(c2ccc(N3CCOCC3)c(F)c2)C(=O)O1 [linezolid, reference compound]",MIC,[4],< 4 µg/mL
Colistin,FICB,"[1]; B. multivorans 1795, FIC of Colistin (Drug B) in combination with BisEDT",1
same,Drug B MIC,P. aeruginosa [2]; P. aeruginosa 6322,0.5 µg/mL
same,FICB,P. aeruginosa [2]; [12],1
same,MICB,P. aeruginosa [2]; [12],0.5 µg/mL
same,Drug B MIC,P. aeruginosa [2]; P. aeruginosa 6977,1 µg/mL
same,FICB,P. aeruginosa [2]; [13],1
same,MICB,P. aeruginosa [2]; [13],1 µg/mL
same,Drug B MIC,P. aeruginosa [2]; P. aeruginosa 7745,0.5 µg/mL
same,FICB,P. aeruginosa [2]; [14],1
same,MICB,P. aeruginosa [2]; [14],0.5 µg/mL
same,Drug B MIC,P. aeruginosa [2]; P. aeruginosa 9108,0.0005 µg/mL
same,Drug B MIC,P. aeruginosa [2]; isolate 8798 (organism name not given),>0.256 µg/mL
C[C@H]1[C@H](NC(=O)/C(=N\OC(C)(C)C(=O)O)c2csc(N)n2)C(=O)N1S(=O)(=O)O [AZT],MIC,"P. aeruginosa [3]; P. aeruginosa isolate 103, QC strain",[…]
same,MIC,"[1]; B. cepacia isolate 1793, during FIC testing",128 µg/mL
NC[C@H]1O[C@H](O[C@H]2[C@H](O)[C@@H](O[C@H]3O[C@H](CO)[C@@H](O)[C@H](N)[C@H]3O)[C@H](N)C[C@@H]2N)[C@H](N)C[C@@H]1O [Topramycin],FICB,"[1]; B. cepacia 546, Topramycin in combination with BisEDT, by checkerboard",0.5
